US4965280A, “Antifungal carbinols” (E. I. Du Pont de Nemours and Company, priority 1989, dated 1990)

Key:
Assay in all cases: Test C rice paddy
BARNYARDGRASS = format: in vivo, Echinochloa crusgalli; settings: Echinochloa crus-galli, 504 h, 21 days, read-out: plant response
Description: (§1) Sixteen cm diameter Airlite plastic pots were partially filled with Tama slit loam soil and the soil saturated with water. Japonica and Indica rice seedlings a the 2.0 to 2.5 leaf stage were transplanted into 1/3 of the pots. Into another third of the pots were transplanted seedling or sprouted tubers of water plantain (Alisma trivale), Scripus (Scirpus paludosus), Cyperus (Cyperus esculentus), and arrowhead (Sagittaria spp.). The remaining pots were planted with barnyardgrass (Echinochloa crusgalli) seeds and sprouted tubes of water chestnut (Eleocharis spp.). These weeds all represent major rice weeds or genera of weeds important in rice. Three to four days after planting, the water level was raised to 3 cm (about 1200 ml/pot) and maintained a this level throughout the test. Chemical treatments were applied directly to the paddy water, within 24 hours of raising the water, after being formulated in a nonphytotoxic solvent. The pots were maintained in the greenhouse.

WATERCHESTNUT = format: in vivo, Eleocharis spp.; settings: Eleocharis, 504 h, 21 days, read-out: plant response
Description: as §1

ARROWHEAD = format: in vivo, Sagittaria spp.; settings: Sagittaria, 504 h, 21 days, read-out: plant response
Description: as §1

SCIRPUS = format: in vivo, Scirpus paludosus; settings: Bolboschoenus maritimus, 504 h, 21 days, read-out: plant response
Description: as §1

WATER PLAINTAIN = format: in vivo, Alisma trivale; settings: 504 h, 21 days, read-out: plant response
Description: as §1

RICE JAP EFF = format: in vivo, Japonica rice; settings: Oryza sativa, 504 h, 21 days, read-out: plant response
Description: as §1

RICE INDICA EFF = format: in vivo; settings: Oryza sativa, 504 h, 21 days, read-out: plant response
Description: as §1

C=C(c1cccc(F)c1)C(O)(Cn1cncn1)c1ccc(F)cc1F (centres unmarked) [Example 18]
pest or weed control at 64 g/ha (BARNYARDGRASS; 0064 G/HA): 0% | pest or weed control at 125 g/ha (BARNYARDGRASS; 0125 G/HA): 0% | pest or weed control at 250 g/ha (BARNYARDGRASS; 0250 G/HA): 0% | pest or weed control at 500 g/ha (BARNYARDGRASS; 0500 G/HA): 40% | pest or weed control at 1000 g/ha (BARNYARDGRASS; 1000 G/HA): 60% | pest or weed control at 64 g/ha (WATERCHESTNUT; 0064 G/HA): 0% | pest or weed control at 125 g/ha (WATERCHESTNUT; 0125 G/HA): 0% | pest or weed control at 250 g/ha (WATERCHESTNUT; 0250 G/HA): 0% | pest or weed control at 500 g/ha (WATERCHESTNUT; 0500 G/HA): 40% | pest or weed control at 1000 g/ha (WATERCHESTNUT; 1000 G/HA): 50% | pest or weed control at 64 g/ha (ARROWHEAD; 0064 G/HA): 0% | pest or weed control at 125 g/ha (ARROWHEAD; 0125 G/HA): 0% | pest or weed control at 250 g/ha (ARROWHEAD; 0250 G/HA): 0% | pest or weed control at 500 g/ha (ARROWHEAD; 0500 G/HA): 20% | pest or weed control at 1000 g/ha (ARROWHEAD; 1000 G/HA): 35% | pest or weed control at 64 g/ha (SCIRPUS; 0064 G/HA): 0% | pest or weed control at 125 g/ha (SCIRPUS; 0125 G/HA): 0% | pest or weed control at 250 g/ha (SCIRPUS; 0250 G/HA): 0% | pest or weed control at 500 g/ha (SCIRPUS; 0500 G/HA): 0% | pest or weed control at 1000 g/ha (SCIRPUS; 1000 G/HA): 0% | pest or weed control at 64 g/ha (WATER PLAINTAIN; 0064 G/HA): 0% | pest or weed control at 125 g/ha (WATER PLAINTAIN; 0125 G/HA): 0% | pest or weed control at 250 g/ha (WATER PLAINTAIN; 0250 G/HA): 0% | pest or weed control at 500 g/ha (WATER PLAINTAIN; 0500 G/HA): 20% | pest or weed control at 1000 g/ha (WATER PLAINTAIN; 1000 G/HA): 40% | pest or weed control at 64 g/ha (RICE JAP EFF; 0064 G/HA): 0% | pest or weed control at 125 g/ha (RICE JAP EFF; 0125 G/HA): 0% | pest or weed control at 250 g/ha (RICE JAP EFF; 0250 G/HA): 0% | pest or weed control at 500 g/ha (RICE JAP EFF; 0500 G/HA): 50% | pest or weed control at 1000 g/ha (RICE JAP EFF; 1000 G/HA): 70% | pest or weed control at 64 g/ha (RICE INDICA EFF; 0064 G/HA): 0% | pest or weed control at 125 g/ha (RICE INDICA EFF; 0125 G/HA): 0% | pest or weed control at 250 g/ha (RICE INDICA EFF; 0250 G/HA): 0% | pest or weed control at 500 g/ha (RICE INDICA EFF; 0500 G/HA): 30% | pest or weed control at 1000 g/ha (RICE INDICA EFF; 1000 G/HA): 50%
